{"source": "patent US20110039762A1", "about": "“TARGETED ANTIMICROBIAL MOIETIES” (C3 JIAN, INC., priority 2009, published 2011)", "note": "“Also recorded” adds a separate entry of the source."}
{"test_system": "microorganisms (e.g., bacteria, yeasts, fungi)", "experiment": "Targeting peptide binding to target microorganisms (Table 3)", "settings": "microorganism(s) the targeting peptide binds; binding in aqueous buffers depending on peptide solubility, preferably 1x PBS"}
{"substance": "PF-207 (AAGCRDLGSLSSLVTNPS; Peptide with targeting and/or antimicrobial activity)", "Target(s)": "M. luteus; also recorded: C. jeikeium"}
{"substance": "PF-210 (EREDGCDAMPLP; Peptide with targeting and/or antimicrobial activity)", "Target(s)": "S. epidermidis and P. aeruginosa and C. albicans and MRSA and E. faecalis and C. jeikeium and C. jejuni"}
{"substance": "PF-213 (MTTGVDFIIEKV; Peptide with targeting and/or antimicrobial activity)", "Target(s)": "S. epidermidis"}
{"substance": "PF-214 (GHLRVCWVFSASLLTPFRSATLI; Peptide with targeting and/or antimicrobial activity)", "Target(s)": "S. mutans; also recorded: S. epidermidis; also recorded: M. luteus; also recorded: E. coli; also recorded: P. aeruginosa; also recorded: A. baumannii"}
{"substance": "PF-216 (ESVDKITEALEEDGFPAKVQ; Peptide with targeting and/or antimicrobial activity)", "Target(s)": "S. mutans; also recorded: E. coli"}
{"substance": "PF-217 (DWEFTHKTIPQKK; Peptide with targeting and/or antimicrobial activity)", "Target(s)": "S. mutans"}
{"substance": "PF-218 (SETPEKPVGTFFYSIYYKIIL; Peptide with targeting and/or antimicrobial activity)", "Target(s)": "S. epidermidis; also recorded: M. luteus; also recorded: P. aeruginosa; also recorded: A. baumannii"}
{"substance": "PF-219 (FLALAVIAGLFKVILIYAAPYLK; Peptide with targeting and/or antimicrobial activity)", "Target(s)": "S. epidermidis; also recorded: M. luteus; also recorded: P. aeruginosa; also recorded: A. baumannii"}
{"substance": "PF-221 (VFDNIDINF; Peptide with targeting and/or antimicrobial activity)", "Target(s)": "S. epidermidis; also recorded: M. luteus; also recorded: P. aeruginosa"}
{"substance": "PF-223 (VKFCIECQTKLERKRR; Peptide with targeting and/or antimicrobial activity)", "Target(s)": "S. epidermidis; also recorded: M. luteus; also recorded: A. baumannii"}
{"substance": "PF-225 (MNCASPEFKKLMELYK; Peptide with targeting and/or antimicrobial activity)", "Target(s)": "S. epidermidis"}
{"substance": "PF-228 (NQLGSQAFAQL; Peptide with targeting and/or antimicrobial activity)", "Target(s)": "S. mutans"}
{"substance": "PF-229 (DPILIQIGFTRFALRKAEAEKIEIQVEEGVPA; Peptide with targeting and/or antimicrobial activity)", "Target(s)": "S. epidermidis; also recorded: M. luteus; also recorded: P. aeruginosa; also recorded: A. baumannii"}
{"substance": "PF-230 (EDKPTNTIQEIKPVKWQ; Peptide with targeting and/or antimicrobial activity)", "Target(s)": "S. mutans"}
{"substance": "PF-231 (AVRDFKKSVREEDEAASLNSPRTIDAQVKTSESTSVKS; Peptide with targeting and/or antimicrobial activity)", "Target(s)": "S. mutans"}
{"substance": "PF-232 (FDQLYALEREGKLDELLA; Peptide with targeting and/or antimicrobial activity)", "Target(s)": "S. epidermidis; also recorded: M. luteus"}
{"substance": "PF-236 (KEIRTATVAELNAKRRLTSAEQALAEVS; Peptide with targeting and/or antimicrobial activity)", "Target(s)": "S. mutans; also recorded: S. epidermidis; also recorded: E. coli; also recorded: C. albicans; also recorded: S. pneumoniae; also recorded: E. faecalis"}
{"substance": "PF-237 (YVKPKVGVHE; Peptide with targeting and/or antimicrobial activity)", "Target(s)": "S. epidermidis"}
{"substance": "PF-238 (RNAVVVTEATFPKYEEEITNYLNRRFGEDWSLKLEKCSVA; Peptide with targeting and/or antimicrobial activity)", "Target(s)": "S. mutans and S. epidermidis and E. coli and P. aeruginosa and C. albicans and MRSA and S. pneumoniae and E. faecalis"}
{"substance": "PF-239 (PKHNVVTGVSVDLDYKP; Peptide with targeting and/or antimicrobial activity)", "Target(s)": "S. mutans; also recorded: E. coli"}
{"substance": "PF-240 (RITEVPPDEHSDR; Peptide with targeting and/or antimicrobial activity)", "Target(s)": "S. mutans; also recorded: E. coli"}
{"substance": "PF-242 (KLFEDPLIKSKAVENFQTTWHEQCLAKELAKNM; Peptide with targeting and/or antimicrobial activity)", "Target(s)": "S. mutans; also recorded: E. coli"}
{"substance": "PF-244 (HMRTISYLLAFAKFSLFIPPKQSLKRL; Peptide with targeting and/or antimicrobial activity)", "Target(s)": "S. epidermidis; also recorded: M. luteus; also recorded: P. aeruginosa; also recorded: A. baumannii"}
{"substance": "PF-245 (MNDVKPVVQPKQTLKAFLVQLLSVRAGVYIKQNNQLPKTKG; Peptide with targeting and/or antimicrobial activity)", "Target(s)": "S. epidermidis; also recorded: M. luteus; also recorded: P. aeruginosa; also recorded: A. baumannii"}
{"substance": "PF-246 (QPDEKAEFFDPSLDKVYRHPTFYHIPDGIEHM; Peptide with targeting and/or antimicrobial activity)", "Target(s)": "S. mutans"}
{"substance": "PF-247 (ETAASETH; Peptide with targeting and/or antimicrobial activity)", "Target(s)": "S. epidermidis"}
{"substance": "PF-248 (ILSKLWFWMINSLGVVLLVSYWLLAKWGVA; Peptide with targeting and/or antimicrobial activity)", "Target(s)": "S. mutans; also recorded: S. epidermidis; also recorded: M. luteus; also recorded: E. coli; also recorded: P. aeruginosa; also recorded: A. baumannii"}
{"substance": "PF-253 (VRDDDS; Peptide with targeting and/or antimicrobial activity)", "Target(s)": "S. epidermidis; also recorded: M. luteus"}
{"substance": "PF-254 (FIYGVGFVPHFWLWKWLFSPWIAWPLMLLGYYIWFLT; Peptide with targeting and/or antimicrobial activity)", "Target(s)": "S. epidermidis; also recorded: M. luteus; also recorded: P. aeruginosa; also recorded: A. baumannii"}
{"substance": "PF-256 (EYFKQVYVKNEKIYSFWICKDLSPKEAAKRAEDILVKLK; Peptide with targeting and/or antimicrobial activity)", "Target(s)": "S. epidermidis"}
{"substance": "PF-259 (LPFSKIGRRVSYKKKDVLKYEQSKTVLNTAQLATV; Peptide with targeting and/or antimicrobial activity)", "Target(s)": "S. epidermidis; also recorded: P. aeruginosa; also recorded: A. baumannii"}
{"substance": "PF-262 (DPHSEIDVTRYCQLHHFTCQTMQISEREFHYLIETQ; Peptide with targeting and/or antimicrobial activity)", "Target(s)": "S. mutans; also recorded: S. epidermidis; also recorded: M. luteus; also recorded: E. coli; also recorded: P. aeruginosa; also recorded: A. baumannii"}
{"substance": "PF-263 (NLKKCPC; Peptide with targeting and/or antimicrobial activity)", "Target(s)": "S. epidermidis; also recorded: M. luteus; also recorded: A. baumannii"}
{"substance": "PF-265 (MKTLFFPLFLIIFVLIIQALDQSYQKKIGISKPQKHPEFMQ; Peptide with targeting and/or antimicrobial activity)", "Target(s)": "S. epidermidis; also recorded: M. luteus; also recorded: A. baumannii"}
{"substance": "PF-266 (DQEKKNKTEESTEQ; Peptide with targeting and/or antimicrobial activity)", "Target(s)": "S. mutans"}
{"substance": "PF-267 (SDDKRTD; Peptide with targeting and/or antimicrobial activity)", "Target(s)": "M. luteus"}
{"substance": "PF-268 (EVLLSDLRPDIFSET; Peptide with targeting and/or antimicrobial activity)", "Target(s)": "S. mutans"}
{"substance": "PF-275 (LVSGVANTVKNTAHTVGNTAKHAGHVAADTTVKATKKQQVK; Peptide with targeting and/or antimicrobial activity)", "Target(s)": "S. mutans"}
{"substance": "PF-279 (SHIGFISISACLAVLLGIARLFVWTWVKFFA; Peptide with targeting and/or antimicrobial activity)", "Target(s)": "S. mutans; also recorded: S. epidermidis; also recorded: M. luteus; also recorded: E. coli; also recorded: P. aeruginosa; also recorded: A. baumannii"}
{"substance": "PF-281 (SYNTYYNKLIHGQRTPDGM; Peptide with targeting and/or antimicrobial activity)", "Target(s)": "S. mutans; also recorded: E. coli"}
{"substance": "PF-282 (QNNDTSAWCGSAHKNGNS; Peptide with targeting and/or antimicrobial activity)", "Target(s)": "S. mutans"}
{"substance": "PF-284 (MRYITYSLIPRLLSKKVIHQQ; Peptide with targeting and/or antimicrobial activity)", "Target(s)": "C. difficile"}
{"substance": "PF-285 (VPAKLLRVIDEIPE; Peptide with targeting and/or antimicrobial activity)", "Target(s)": "S. mutans"}
{"substance": "PF-288 (IYQLLNIEYSEDD; Peptide with targeting and/or antimicrobial activity)", "Target(s)": "S. mutans; also recorded: E. coli"}
{"substance": "PF-291 (DVDGAIESEL; Peptide with targeting and/or antimicrobial activity)", "Target(s)": "S. mutans; also recorded: E. coli"}
{"substance": "PF-295 (NIQVYESECGNYIFKKSDESFLIDIFDKNGTH; Peptide with targeting and/or antimicrobial activity)", "Target(s)": "C. difficile"}
{"substance": "PF-299 (LATKLKYEKEHKKM; Peptide with targeting and/or antimicrobial activity)", "Target(s)": "B. subtilis"}
{"substance": "PF-300 (VKDVLLELFNKIIGA; Peptide with targeting and/or antimicrobial activity)", "Target(s)": "B. subtilis; also recorded: C. difficile"}
